{"source": "PubChem BioAssay (NCI)", "test_in_all_cases": "DTP human tumour cell line panel, 48 h", "key": {"[1]": {"system": "SK-MEL-2 melanoma"}, "[2]": {"system": "OVCAR-4 ovarian"}, "[3]": {"system": "NCI/ADR-RES ovarian"}, "[4]": {"system": "UO-31 renal"}, "[5]": {"system": "SK-OV-3 ovarian"}, "[6]": {"system": "T-47D breast"}, "[7]": {"system": "OVCAR-3 ovarian"}, "[8]": {"system": "CAKI-1 renal"}, "[9]": {"system": "SF-268 CNS"}, "[10]": {"system": "SN12C renal"}}, "note": "Several values for one entry are separate records, joined by “and”; a condition that tells them apart may be missing. Identical values can stand only once.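 A five-concentration, 48-hour dose response in 96-well plates underlies each endpoint, interpolated linearly between surrounding concentrations. GI50 = concentration required for 50% inhibition of growth. TGI: total growth inhibition.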", "data": [{"smiles": "CCn1c(SCC(=O)Nc2cc(C(F)(F)F)ccc2Cl)nc2ccccc2c1=O", "values": [{"measurement": "GI50", "setting": "[1]", "value": 24.6, "unit": "µM"}, {"measurement": "TGI", "setting": "[1]", "value": 72.3, "unit": "µM"}, {"measurement": "GI50", "setting": "[2]", "value": 22.5, "unit": "µM"}, {"measurement": "TGI", "setting": "[2]", "value": "> 100", "unit": "µM"}, {"measurement": "GI50", "setting": "[3]", "value": 32.8, "unit": "µM"}, {"measurement": "TGI", "setting": "[3]", "value": "> 100", "unit": "µM"}, {"measurement": "GI50", "setting": "[4]", "value": 28.4, "unit": "µM"}, {"measurement": "TGI", "setting": "[4]", "value": "> 100", "unit": "µM"}, {"measurement": "GI50", "setting": "[5]", "value": 14.6, "unit": "µM"}, {"measurement": "TGI", "setting": "[5]", "value": 30.9, "unit": "µM"}, {"measurement": "GI50", "setting": "[6]", "value": 25.2, "unit": "µM"}, {"measurement": "TGI", "setting": "[6]", "value": "> 100", "unit": "µM"}, {"measurement": "GI50", "setting": "[7]", "value": 43.2, "unit": "µM"}, {"measurement": "TGI", "setting": "[7]", "value": "> 100", "unit": "µM"}, {"measurement": "GI50", "setting": "[8]", "value": 24, "unit": "µM"}, {"measurement": "TGI", "setting": "[8]", "value": "> 100", "unit": "µM"}, {"measurement": "GI50", "setting": "[9]", "value": 41.2, "unit": "µM"}, {"measurement": "TGI", "setting": "[9]", "value": "> 100", "unit": "µM"}, {"measurement": "GI50", "setting": "[10]", "value": 76.9, "unit": "µM"}, {"measurement": "TGI", "setting": "[10]", "value": "> 100", "unit": "µM"}]}, {"smiles": "CC1OC(CC(=O)O)Cc2c1c(O)c1c(O)cc(-c3cc(=O)c4c(=O)c5c(c(=O)c=4c3=O)CC(CC(=O)O)OC5C)c(O)c1c2O", "note": "(stereo not drawn)", "values": [{"measurement": "GI50", "setting": "[1]", "value": 27.7, "unit": "µM"}, {"measurement": "TGI", "setting": "[1]", "value": "48.2 µM and 62.5 µM"}, {"measurement": "GI50", "setting": "[2]", "value": 35.1, "unit": "µM"}, {"measurement": "TGI", "setting": "[2]", "value": 39.7, "unit": "µM"}, {"measurement": "GI50", "setting": "[3]", "value": 59.6, "unit": "µM"}, {"measurement": "GI50", "setting": "[4]", "value": 30.3, "unit": "µM"}, {"measurement": "TGI", "setting": "[4]", "value": "> 64.5", "unit": "µM"}, {"measurement": "GI50", "setting": "[5]", "value": 48.8, "unit": "µM"}, {"measurement": "TGI", "setting": "[5]", "value": "> 100", "unit": "µM"}, {"measurement": "GI50", "setting": "[6]", "value": 30, "unit": "µM"}, {"measurement": "GI50", "setting": "[7]", "value": 37, "unit": "µM"}, {"measurement": "TGI", "setting": "[7]", "value": "> 58.6", "unit": "µM"}, {"measurement": "GI50", "setting": "[8]", "value": 23.6, "unit": "µM"}, {"measurement": "TGI", "setting": "[8]", "value": "87.5 µM and 52.7 µM"}, {"measurement": "GI50", "setting": "[9]", "value": 47.8, "unit": "µM"}, {"measurement": "TGI", "setting": "[9]", "value": "> 100", "unit": "µM"}, {"measurement": "GI50", "setting": "[10]", "value": 29.2, "unit": "µM"}, {"measurement": "TGI", "setting": "[10]", "value": 32, "unit": "µM"}]}, {"smiles": "FC(F)(F)c1nc(SCc2ccc(Cl)cc2)n[nH]1", "values": [{"measurement": "TGI", "setting": "[1]", "value": "> 100", "unit": "µM"}, {"measurement": "TGI", "setting": "[2]", "value": "> 100", "unit": "µM"}, {"measurement": "TGI", "setting": "[3]", "value": "> 100", "unit": "µM"}, {"measurement": "TGI", "setting": "[4]", "value": "> 100", "unit": "µM"}, {"measurement": "TGI", "setting": "[5]", "value": "> 100", "unit": "µM"}, {"measurement": "TGI", "setting": "[6]", "value": "> 100", "unit": "µM"}, {"measurement": "TGI", "setting": "[7]", "value": "> 100", "unit": "µM"}, {"measurement": "TGI", "setting": "[8]", "value": "> 100", "unit": "µM"}, {"measurement": "TGI", "setting": "[9]", "value": "> 100", "unit": "µM"}, {"measurement": "TGI", "setting": "[10]", "value": "> 100", "unit": "µM"}]}, {"smiles": "CC(C)=Cc1cccc2[nH]c(O)c(N=Nc3ccc(S(N)(=O)=O)cc3)c12", "values": [{"measurement": "GI50", "setting": "[1]", "value": "> 25", "unit": "µM"}, {"measurement": "TGI", "setting": "[1]", "value": "> 25", "unit": "µM"}, {"measurement": "GI50", "setting": "[2]", "value": 1.26, "unit": "µM"}, {"measurement": "TGI", "setting": "[2]", "value": "> 25", "unit": "µM"}, {"measurement": "GI50", "setting": "[3]", "value": "> 23.4", "unit": "µM"}, {"measurement": "TGI", "setting": "[3]", "value": "> 25", "unit": "µM"}, {"measurement": "GI50", "setting": "[4]", "value": "> 25", "unit": "µM"}, {"measurement": "TGI", "setting": "[4]", "value": "> 25", "unit": "µM"}, {"measurement": "GI50", "setting": "[5]", "value": 14.5, "unit": "µM"}, {"measurement": "TGI", "setting": "[5]", "value": "> 25", "unit": "µM"}, {"measurement": "GI50", "setting": "[6]", "value": "> 25", "unit": "µM"}, {"measurement": "TGI", "setting": "[6]", "value": "> 25", "unit": "µM"}, {"measurement": "GI50", "setting": "[7]", "value": 11.5, "unit": "µM"}, {"measurement": "TGI", "setting": "[7]", "value": "> 25", "unit": "µM"}, {"measurement": "GI50", "setting": "[8]", "value": 1.69, "unit": "µM"}, {"measurement": "TGI", "setting": "[8]", "value": "> 25", "unit": "µM"}, {"measurement": "GI50", "setting": "[9]", "value": 12.4, "unit": "µM"}, {"measurement": "TGI", "setting": "[9]", "value": "> 25", "unit": "µM"}, {"measurement": "GI50", "setting": "[10]", "value": "> 25", "unit": "µM"}, {"measurement": "TGI", "setting": "[10]", "value": "> 25", "unit": "µM"}]}, {"smiles": "O=C1OC(c2ccc(Cl)cc2)=N/C1=C\\c1ccccc1", "values": [{"measurement": "TGI", "setting": "[1]", "value": "> 100", "unit": "µM"}, {"measurement": "TGI", "setting": "[2]", "value": "> 100", "unit": "µM"}, {"measurement": "TGI", "setting": "[3]", "value": "> 100", "unit": "µM"}, {"measurement": "TGI", "setting": "[4]", "value": "> 100", "unit": "µM"}, {"measurement": "TGI", "setting": "[5]", "value": "> 100", "unit": "µM"}, {"measurement": "TGI", "setting": "[6]", "value": "> 100", "unit": "µM"}, {"measurement": "TGI", "setting": "[7]", "value": "> 100", "unit": "µM"}, {"measurement": "TGI", "setting": "[8]", "value": "> 100", "unit": "µM"}, {"measurement": "TGI", "setting": "[9]", "value": "> 100", "unit": "µM"}, {"measurement": "TGI", "setting": "[10]", "value": "> 100", "unit": "µM"}]}, {"smiles": "CC1(C)CCc2c(c(N=Nc3ccccc3F)c3ccccc3c2O)O1", "values": [{"measurement": "GI50", "setting": "[1]", "value": "> 100", "unit": "µM"}, {"measurement": "TGI", "setting": "[1]", "value": "> 100", "unit": "µM"}, {"measurement": "GI50", "setting": "[2]", "value": 66.2, "unit": "µM"}, {"measurement": "TGI", "setting": "[2]", "value": "> 100", "unit": "µM"}, {"measurement": "GI50", "setting": "[3]", "value": 20.1, "unit": "µM"}, {"measurement": "TGI", "setting": "[3]", "value": 47.1, "unit": "µM"}, {"measurement": "GI50", "setting": "[4]", "value": 54.7, "unit": "µM"}, {"measurement": "TGI", "setting": "[4]", "value": "> 100", "unit": "µM"}, {"measurement": "GI50", "setting": "[5]", "value": 25.7, "unit": "µM"}, {"measurement": "TGI", "setting": "[5]", "value": 75.9, "unit": "µM"}, {"measurement": "GI50", "setting": "[6]", "value": 36.9, "unit": "µM"}, {"measurement": "TGI", "setting": "[6]", "value": "> 100", "unit": "µM"}, {"measurement": "GI50", "setting": "[7]", "value": 20.5, "unit": "µM"}, {"measurement": "TGI", "setting": "[7]", "value": 51.2, "unit": "µM"}, {"measurement": "GI50", "setting": "[8]", "value": 31.6, "unit": "µM"}, {"measurement": "TGI", "setting": "[8]", "value": "> 100", "unit": "µM"}, {"measurement": "GI50", "setting": "[9]", "value": 76.3, "unit": "µM"}, {"measurement": "TGI", "setting": "[9]", "value": "> 100", "unit": "µM"}, {"measurement": "GI50", "setting": "[10]", "value": 22.7, "unit": "µM"}, {"measurement": "TGI", "setting": "[10]", "value": 53.1, "unit": "µM"}]}, {"smiles": "COc1ccc2nc3c(cc2c1)C(=O)CC(c1ccccc1)C3", "note": "(stereo not drawn)", "values": [{"measurement": "GI50", "setting": "[1]", "value": 0.771, "unit": "µM"}, {"measurement": "TGI", "setting": "[1]", "value": "> 100", "unit": "µM"}, {"measurement": "GI50", "setting": "[2]", "value": "> 100", "unit": "µM"}, {"measurement": "TGI", "setting": "[2]", "value": "> 100", "unit": "µM"}, {"measurement": "GI50", "setting": "[3]", "value": 0.359, "unit": "µM"}, {"measurement": "TGI", "setting": "[3]", "value": "> 100", "unit": "µM"}, {"measurement": "GI50", "setting": "[4]", "value": 0.589, "unit": "µM"}, {"measurement": "TGI", "setting": "[4]", "value": "> 100", "unit": "µM"}, {"measurement": "GI50", "setting": "[5]", "value": 2.09, "unit": "µM"}, {"measurement": "TGI", "setting": "[5]", "value": "> 100", "unit": "µM"}, {"measurement": "GI50", "setting": "[6]", "value": 5.34, "unit": "µM"}, {"measurement": "TGI", "setting": "[6]", "value": "> 100", "unit": "µM"}, {"measurement": "GI50", "setting": "[7]", "value": 1.4, "unit": "µM"}, {"measurement": "TGI", "setting": "[7]", "value": 10.4, "unit": "µM"}, {"measurement": "GI50", "setting": "[8]", "value": 0.552, "unit": "µM"}, {"measurement": "TGI", "setting": "[8]", "value": "> 100", "unit": "µM"}, {"measurement": "GI50", "setting": "[9]", "value": "> 100", "unit": "µM"}, {"measurement": "TGI", "setting": "[9]", "value": "> 100", "unit": "µM"}, {"measurement": "GI50", "setting": "[10]", "value": 0.732, "unit": "µM"}, {"measurement": "TGI", "setting": "[10]", "value": "> 100", "unit": "µM"}]}]}
